Experimental data from ChEMBL document CHEMBL1139308, “Identification and synthesis of 2,7-diamino-thiazolo[5,4-d]pyrimidine derivatives as TRPV1 antagonists” (Bioorg Med Chem Lett, 2009).
≈ marks a conversion by molar mass, not a printed value.

Key:
[1] = molecular target: Transient receptor potential cation channel subfamily V member 1 (Homo sapiens, UniProt Q8NER1); test: Antagonist activity at human TRPV1 expressed in HEK293 cells assessed as inhibition of capsaicin-induced calcium flux; type: functional, cell-based
Chain of Transient receptor potential cation channel subfamily V member 1 (Homo sapiens, UniProt Q8NER1) (Q8NER1 whole entry): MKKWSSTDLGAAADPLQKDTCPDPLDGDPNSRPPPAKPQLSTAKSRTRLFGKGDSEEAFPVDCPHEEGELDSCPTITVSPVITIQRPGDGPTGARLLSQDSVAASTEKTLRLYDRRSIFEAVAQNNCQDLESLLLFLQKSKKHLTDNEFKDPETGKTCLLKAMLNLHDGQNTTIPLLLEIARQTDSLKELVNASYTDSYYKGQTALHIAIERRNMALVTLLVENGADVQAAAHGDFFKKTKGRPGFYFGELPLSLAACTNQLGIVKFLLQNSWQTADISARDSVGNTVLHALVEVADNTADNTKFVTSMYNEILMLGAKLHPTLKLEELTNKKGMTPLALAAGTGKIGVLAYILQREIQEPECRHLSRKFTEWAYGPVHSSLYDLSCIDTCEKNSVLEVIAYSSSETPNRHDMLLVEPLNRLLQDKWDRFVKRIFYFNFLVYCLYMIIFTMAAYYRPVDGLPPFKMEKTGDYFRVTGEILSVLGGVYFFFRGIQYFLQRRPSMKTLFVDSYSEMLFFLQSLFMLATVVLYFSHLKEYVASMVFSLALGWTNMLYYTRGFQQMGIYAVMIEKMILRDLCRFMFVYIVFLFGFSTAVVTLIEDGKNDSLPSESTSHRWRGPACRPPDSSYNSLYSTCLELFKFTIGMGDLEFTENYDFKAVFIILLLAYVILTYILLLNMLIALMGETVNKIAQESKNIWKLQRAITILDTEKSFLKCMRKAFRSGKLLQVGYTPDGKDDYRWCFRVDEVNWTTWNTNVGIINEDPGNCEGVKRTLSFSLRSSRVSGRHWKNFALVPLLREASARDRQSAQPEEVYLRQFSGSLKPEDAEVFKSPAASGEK

[2] = molecular target: Transient receptor potential cation channel subfamily V member 1 (Rattus norvegicus, UniProt O35433); test: Antagonist activity at rat TRPV1 expressed in HEK293 cells assessed as inhibition of capsaicin-induced calcium flux; type: functional, cell-based
Chain of Transient receptor potential cation channel subfamily V member 1 (Rattus norvegicus, UniProt O35433) (O35433 whole entry): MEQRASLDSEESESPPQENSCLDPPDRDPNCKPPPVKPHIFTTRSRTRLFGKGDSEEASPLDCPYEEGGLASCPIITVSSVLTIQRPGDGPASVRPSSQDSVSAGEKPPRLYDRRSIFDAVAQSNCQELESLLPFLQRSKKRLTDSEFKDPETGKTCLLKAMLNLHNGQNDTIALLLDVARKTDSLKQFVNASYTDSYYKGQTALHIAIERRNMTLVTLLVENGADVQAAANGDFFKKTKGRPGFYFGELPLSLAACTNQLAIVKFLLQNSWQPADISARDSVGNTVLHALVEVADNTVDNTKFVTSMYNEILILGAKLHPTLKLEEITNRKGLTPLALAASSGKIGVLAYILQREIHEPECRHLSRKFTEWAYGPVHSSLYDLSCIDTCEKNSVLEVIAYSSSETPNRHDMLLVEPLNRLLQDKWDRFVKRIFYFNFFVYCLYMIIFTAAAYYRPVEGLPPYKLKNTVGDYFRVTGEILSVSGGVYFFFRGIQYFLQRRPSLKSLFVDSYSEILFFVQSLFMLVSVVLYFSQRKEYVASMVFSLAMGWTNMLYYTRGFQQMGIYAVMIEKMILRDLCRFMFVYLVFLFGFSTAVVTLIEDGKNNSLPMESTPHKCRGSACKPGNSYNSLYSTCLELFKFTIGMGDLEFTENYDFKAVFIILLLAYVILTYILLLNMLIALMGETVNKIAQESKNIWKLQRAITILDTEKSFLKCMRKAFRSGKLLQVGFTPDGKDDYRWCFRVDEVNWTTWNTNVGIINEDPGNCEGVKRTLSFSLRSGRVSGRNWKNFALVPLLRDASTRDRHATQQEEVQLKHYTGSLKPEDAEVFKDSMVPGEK

[3] = Volume of distribution at steady state in fasted Sprague-Dawley rat at 0.5 mg/kg, iv and 2 mg/kg, po; type: ADME, organism-based; settings: in vivo, read-out: Vdss
[4] = Half life in fasted Sprague-Dawley rat at 0.5 mg/kg, iv and 2 mg/kg, po; type: ADME, organism-based; settings: in vivo
[5] = Clearance in fasted Sprague-Dawley rat at 0.5 mg/kg, iv and 2 mg/kg, po; type: ADME, organism-based; settings: in vivo
Rattus norvegicus = test: AUC (infinity) in fasted Sprague-Dawley rat at 2 mg/kg, po; type: ADME, organism-based, Plasma; set-up: time infinity, dose 2 mg/kg, route oral; settings: in vivo
[6] = Aqueous solubility in fasted-state simulated intestinal fluid at pH 6.8 after 3 days by HPLC; type: physicochemical
[7] = Cmax in fasted Sprague-Dawley rat at 2 mg/kg, po; type: ADME, organism-based; set-up: dose 2 mg/kg, route oral; settings: in vivo
[8] = Bioavailability in fasted Sprague-Dawley rat at 0.5 mg/kg, iv and 2 mg/kg, po; type: ADME, organism-based; settings: in vivo
[9] = Aqueous solubility in simulated gastric fluid at pH 1.2 after 3 days by HPLC; type: physicochemical
[10] = Tmax in fasted Sprague-Dawley rat at 2 mg/kg, po; type: ADME, organism-based; set-up: dose 2 mg/kg, route oral; settings: in vivo

Compound | IC50 [1] [nM] | IC50 [2] [nM] | further results
FC(F)(F)c1ccc(Sc2ncnc3sc(Nc4c(Cl)cccc4Cl)nc23)cc1 | > 5000 | > 5000 | 
FC(F)(F)c1cccc(Nc2ncnc3sc(Nc4c(Cl)cccc4Cl)nc23)c1 | 206 | 192 | 
CS(=O)(=O)c1ccc(Nc2ncnc3sc(Nc4c(Cl)cccc4Cl)nc23)cc1 | 5 | 3 | Vd [3]: 2.2 L/kg; half-life [4]: 1.2 h; clearance [5]: 60 mL/min/kg
Clc1cccc(Cl)c1Nc1nc2c(Nc3ccccc3)ncnc2s1 | 176 | 170 | 
O=S(=O)(c1ccc(Nc2ncnc3sc(Nc4c(Cl)cccc4Cl)nc23)cc1)N1CCCC1 |  | 0.5 | 
FC(F)(F)c1ccc(Nc2nc(-c3ccccc3)nc3sc(Nc4c(Cl)cccc4Cl)nc23)cc1 | 539 | 104 | 
CS(=O)(=O)c1ccccc1Nc1nc2c(Nc3ccc(C(F)(F)F)cc3)ncnc2s1 | 234 | 221 | 
FC(F)(F)c1ccc(Nc2nc(N3CCNCC3)nc3sc(Nc4c(Cl)cccc4Cl)nc23)cc1 | > 5000 | > 5000 | 
CN(C)c1nc(Nc2ccc(C(F)(F)F)cc2)c2nc(Nc3c(Cl)cccc3Cl)sc2n1 | 59 | 43 | 
CSc1nc(Nc2ccc(C(F)(F)F)cc2)c2nc(Nc3c(Cl)cccc3Cl)sc2n1 | 224 | 113 | 
NC(=O)c1ccc(Nc2ncnc3sc(Nc4c(Cl)cccc4Cl)nc23)cc1 | > 5000 | > 5000 | 
CC(C)Nc1nc(Nc2ccc(C(F)(F)F)cc2)c2nc(Nc3c(Cl)cccc3Cl)sc2n1 | 13 | 9 | 
FC(F)(F)c1ccc(Nc2nc(N3CCOCC3)nc3sc(Nc4c(Cl)cccc4Cl)nc23)cc1 | 30 | 16 | 
FC(F)(F)c1ccc(Nc2ncnc3sc(Nc4ccccc4Cl)nc23)cc1 | 64 | 32 | 
FC(F)(F)c1ccc(Nc2ncnc3sc(Nc4ccccc4)nc23)cc1 | > 5000 |  | 
NS(=O)(=O)c1ccc(Nc2ncnc3sc(Nc4c(Cl)cccc4Cl)nc23)cc1 | > 5000 | 590 | 
FC(F)(F)c1ccc(Nc2nc3c(Nc4ccc(C(F)(F)F)cc4)ncnc3s2)cc1 | > 5000 |  | 
CS(=O)(=O)c1nc(Nc2ccc(C(F)(F)F)cc2)c2nc(Nc3c(Cl)cccc3Cl)sc2n1 | 274 | 77 | 
CC(C)(C)c1ccc(Oc2ncnc3sc(Nc4c(Cl)cccc4Cl)nc23)cc1 | > 5000 | > 5000 | 
O=C(O)c1ccc(Nc2ncnc3sc(Nc4c(Cl)cccc4Cl)nc23)cc1 | > 5000 | > 5000 | 
FC(F)(F)c1ccc(Nc2nc(NCCN3CCOCC3)nc3sc(Nc4c(Cl)cccc4Cl)nc23)cc1 | 39 | 11 | AUC (Rattus norvegicus): 196 ng·h/mL; solubility at 72 h [6]: 10 µg/mL (≈ 17.1 µM); Cmax [7]: 70 nM; Vd [3]: 2.8 L/kg; bioavailability [8]: 17%; solubility at 72 h [9]: 116 µg/mL (≈ 198 µM); half-life [4]: 1.8 h; clearance [5]: 30 mL/min/kg; Tmax [10]: 2 h
CCN(CC)c1nc(Nc2ccc(C(F)(F)F)cc2)c2nc(Nc3c(Cl)cccc3Cl)sc2n1 | 48 | 34 | 
CC(C)(C)c1ccc(Nc2ncnc3sc(Nc4c(Cl)cccc4Cl)nc23)cc1 | 11 |  | 
Cc1nc(Nc2ccc(C(F)(F)F)cc2)c2nc(Nc3c(Cl)cccc3Cl)sc2n1 |  | 2 | 
FC(F)(F)c1ccc(Nc2ncnc3sc(Nc4ncccc4C(F)(F)F)nc23)cc1 | > 5000 | > 5000 | 
O=C(c1ccc(Nc2ncnc3sc(Nc4c(Cl)cccc4Cl)nc23)cc1)N1CCCC1 | > 5000 | > 5000 | 
